The values below come from patent US6271342A, “Sugar-modified cytostatics” (Bayer Aktiengesellschaft, priority 1995, dated 2001).

Holding throughout (test): Growth inhibition test (MTT) for cytotoxic properties
Settings in all cases: Table 1b

One assay deals with B 16 F 10. The assay is classed as cell-based, mouse. Here is the method: Growth Inhibition Test for Determination of the Cytotoxic Properties of Glycoconjugates of Batracyline and of Quinolone-a
The human colon cell lines SW 480 and HT 29 (ATCC no. CCL 228 and HBT-38) and the mouse melanoma cell line B 16 F 10 were cultured in Roux dishes in RPMI 1640 medium with addition of 10% FCS. The cultures were then trypsinized and taken up in RPMI plus 10% FCS to a cell count of 50,000 cells/ml. 100 μl of cell suspension/well were introduced into a 96 microwell plate and incubated for 1 day at 37° C. in a CO2 incubating cabinet. A further 100 μl of RPMI medium and 1 μl of dimethyl sulphoxide with the test substances were then added. The growth was checked after day 3 and day 6. 40 μl of MTT solution (3-(4,5-dimethylthiazol-2-yl)-2,5-diphenyltetrazoline bromide) with an initial concentration of 5 mg/ml of H2 O were added to each microwave. The plate was incubated for 5 hours in a CO2 incubating cabinet at 37° C. The medium was then sucked off and 100 μl of i-propanol/well were added. After shaking for 30 minutes with 100 μl of H2 O, the extinction was measured at 540 nm with a Titertek Multiskan MCC/340 (Flow).

For the next assay, the system named is HT 29. It counts as cell-based, human. The method, boiled down:
(§1)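 SW 480 and HT 29 cells in RPMI 1640 with 10% FCS were seeded at 50,000 cells/ml, grown 1 day at 37 °C, then exposed to compound added in DMSO. MTT (5 mg/ml stock) was applied after day 3 and day 6 for 5 h, and formazan absorbance was read at 540 nm. IC50 values reported.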

Another assay has as its system SW 480. The assay is classed as cell-based, human. The method, boiled down: as §1

Structures are written as SMILES. Structures can show the parent of a compound that is named as a salt.

The term IC50 denotes the concentration that inhibits the measured activity by half. The low end stands for greater potency, the high end for weaker potency. In the case of `CO[C@H]1[C@H](O)[C@@H](Oc2ccc(NC(=S)NCCCC[C@H](N)C(=O)NC3C=CCC4CN(c5c(F)cc6c(=O)c(C(=O)O)cn(C7CC7)c6c5Cl)CC43)cc2)O[C@@H](C)[C@H]1O` (stereo partly drawn) [Example 10.3, N-{N^ε -[O-(3-O-Methyl-β-L-fucosyl)-4-hydroxy-phenylamino-thiocarbonyl]-lysyl}-quinolone-a], the IC50 with B 16 F 10 came to 0.7 µM; in the assay on HT 29 it was 4 µM; with SW 480 it was 5 µM.

Turning to `C[C@@H]1O[C@H](Oc2ccc(NC(=S)NCCCC[C@H](NC(=S)Nc3ccc(O[C@H]4O[C@@H](C)[C@@H](O)[C@@H](OCC(=O)O)[C@@H]4O)cc3)C(=O)NC3C=CCC4CN(c5c(F)cc6c(=O)c(C(=O)O)cn(C7CC7)c6c5Cl)CC43)cc2)[C@@H](O)[C@H](OCC(=O)O)[C@@H]1O` (stereo partly drawn) [Example 11.8, N-{N^α,N^ε -Bis-[O-(3-O-carboxymethyl-β-L-fucosyl)-4-hydroxy-phenylamino-thiocarbonyl]-lysyl}-quinolone-a, di-sodium salt], the IC50 was found to be 15 µM in the assay on B 16 F 10, 16 µM in the assay on HT 29 and 12 µM with SW 480.

As to `C[C@@H]1O[C@H](Oc2ccc(NC(=S)NCCCC[C@@H](NC(=S)Nc3ccc(O[C@H]4O[C@@H](C)[C@@H](O)[C@@H](OCC(=O)O)[C@@H]4O)cc3)C(=O)NC3C=CCC4CN(c5c(F)cc6c(=O)c(C(=O)O)cn(C7CC7)c6c5Cl)CC43)cc2)[C@@H](O)[C@H](OCC(=O)O)[C@@H]1O` (stereo partly drawn) [Example 11.9, N-{N^α,N^ε -Bis-[O-(3-O-carboxymethyl-β-L-fucosyl)-4-hydroxy-phenylamino-thiocarbonyl]-D-lysyl}-quinolone-a, di-sodium salt], the IC50 with B 16 F 10 was found to be 9 µM; in the assay with HT 29 it was 12 µM; in the assay with SW 480, 12 µM.

As for `CO[C@H]1[C@H](O)[C@H](Oc2ccc(NC(=S)NCCCC[C@@H](NC(=S)Nc3ccc(O[C@@H]4O[C@@H](C)[C@@H](O)[C@@H](OC)[C@@H]4O)cc3)C(=O)NC3C=CCC4CN(c5c(F)cc6c(=O)c(C(=O)O)cn(C7CC7)c6c5Cl)CC43)cc2)O[C@@H](C)[C@H]1O` (stereo partly drawn) [Example 11.10, N-{N^α,N^ε -Bis-[O-(3-O-methyl-α-L-fucosyl)-4hydroxy-phenylamino-thiocarbonyl]-D-lysyl}-quinolone-a], the IC50 in the assay on B 16 F 10 was 2 µM; with HT 29, 20 µM; in the assay with SW 480, 8 µM.

Consider `CO[C@H]1[C@@H](O)[C@@H](CO)O[C@@H](Oc2ccc(NC(=S)NCCCC[C@@H](NC(=S)Nc3ccc(O[C@@H]4O[C@H](CO)[C@H](O)[C@H](OC)[C@H]4O)cc3)C(=O)NC3C=CCC4CN(c5c(F)cc6c(=O)c(C(=O)O)cn(C7CC7)c6c5Cl)CC43)cc2)[C@@H]1O` (stereo partly drawn) [Example 11.16, N-{N^α,N^ε -Bis-[O-(3-O-methyl-β-D-galactopyranosyl)-4-hydroxy-phenylamino-thiocarbonyl]-D-lysyl}-quinolone, sodium salt], for which the IC50 came to 1.5 µM with B 16 F 10, 10 µM in the assay with HT 29 and 10 µM in the assay with SW 480.

Regarding `CO[C@@H]1[C@H](O)[C@@H](Oc2ccc(NC(=S)NCCCC[C@@H](NC(=S)Nc3ccc(O[C@H]4O[C@H](CO)[C@@H](O)[C@H](OC)[C@@H]4O)cc3)C(=O)NC3C=CCC4CN(c5c(F)cc6c(=O)c(C(=O)O)cn(C7CC7)c6c5Cl)CC43)cc2)O[C@H](CO)[C@H]1O` (stereo partly drawn) [Example 11.17, N-{N^α,N^ε -Bis-[O-(3-O-methyl-α-D-mannopyranosyl)-4-hydroxy-phenylamino-thiocarbonyl]-D-lysyl}-quinolone-a, sodium salt], the IC50 in the assay on B 16 F 10 was determined as 8 µM; in the assay on HT 29, 75 µM; with SW 480, 75 µM.

With `CO[C@H]1[C@@H](O)[C@@H](CO)O[C@@H](O[C@H]2[C@H](O)[C@@H](O)[C@H](Oc3ccc(NC(=S)NCCCC[C@@H](NC(=S)Nc4ccc(O[C@@H]5O[C@H](CO)[C@@H](O[C@@H]6O[C@H](CO)[C@H](O)[C@H](OC)[C@H]6O)[C@H](O)[C@H]5O)cc4)C(=O)NC4C=CCC5CN(c6c(F)cc7c(=O)c(C(=O)O)cn(C8CC8)c7c6Cl)CC54)cc3)O[C@@H]2CO)[C@@H]1O` (stereo partly drawn) [Example 11.18, N-{N^α,N^ε -Bis-[O-(4-O-(3'-O-methyl-β-D-galactopyranosyl)-β-D-glucopyranosyl)-4-hydroxy-phenylamino-thiocarbonyl]-D-lysyl}-quinolone-a, sodium salt], the IC50 in the assay with B 16 F 10 came to 0.5 µM; in the assay with HT 29 it was 3.5 µM; with SW 480, 4.5 µM.

For the compound `CC(NC(=O)C(CCCCN)NC(=S)Nc1ccc(OC2OC(C)C(O)C(OCC(=O)O)C2O)cc1)C(=O)NC1C=CCC2CN(c3c(F)cc4c(=O)c(C(=O)O)cn(C5CC5)c4c3Cl)CC21` [Example 12.7, N-{N^α -[O-(3-O-Carboxymethyl-β-L-fucosyl)-4-hydroxy-phenylamino-thiocarbonyl]-lysyl-D-alanyl}-quinolone-a], the IC50 with B 16 F 10 is 20 µM; in the assay on HT 29 it was more than 250 µM; with SW 480, 60 µM.

In the case of `COC[C@H]1O[C@@H](Oc2ccc(NC(=S)N[C@@H](CCCCN)C(=O)NC3C=CCC4CN(c5c(F)cc6c(=O)c(C(=O)O)cn(C7CC7)c6c5Cl)CC43)cc2)[C@H](O)[C@@H](OC)[C@H]1O` (stereo partly drawn) [Example 12.9, N-{N^α -[O-(3,6-Di-O-methyl-β-D-galactopyranosyl)-4-hydroxy-phenylamino-thiocarbonyl]-lysyl}-quinolone-a, hydrochloride], the IC50 with B 16 F 10 came out at 2 µM; in the assay with HT 29, 8 µM; with SW 480 it was 4 µM.

For the compound `CO[C@@H]1[C@H](O)[C@@H](Oc2ccc(NC(=S)N[C@@H](CCCCN)C(=O)NC3C=CCC4CN(c5c(F)cc6c(=O)c(C(=O)O)cn(C7CC7)c6c5Cl)CC43)cc2)O[C@H](CO)[C@H]1O` (stereo partly drawn) [Example 12.10, N-{N^α -[O-(3-O-Methyl-α-D-mannopyranosyl)-4-hydroxy-phenylamino-thio-carbonyl]-lysyl}-quinolone-a, hydrochloride], the half-maximal inhibitory concentration (IC50) in the assay with B 16 F 10 turned out to be 4 µM; in the assay on HT 29, 15 µM; in the assay with SW 480 it was 15 µM.

`COC1C(O)C(CO)OC(OC2C(CO)OC(Oc3ccc(NC(=S)NC(CCCCN)C(=O)NC4C=CCC5CN(c6c(F)cc7c(=O)c(C(=O)O)cn(C8CC8)c7c6Cl)CC54)cc3)C(O)C2O)C1O` [Example 12.11, N-{N^α -[O-(4-O-(3'-O-Methyl-β-D-galactopyranosyl)-β-D-glucopyranosyl)-4-hydroxy-phenylamino-thiocarbonyl]-lysyl}-quinolone-a hydrochloride]: the IC50 is 0.5 µM in the assay with B 16 F 10, 2 µM in the assay on HT 29 and 2 µM in the assay on SW 480.

On to `COC1C(O)C(C)OC(Oc2ccc(NC(=S)NC3C=CCC4CN(c5c(F)cc6c(=O)c(C(=O)O)cn(C7CC7)c6c5Cl)CC43)cc2)C1O` [Example 12.13, N-[O-(3-O-Methyl-β-L-fucosyl)-4-hydroxy-phenylamino-thiocarbonyl]-quin olone-a], for which the results for the IC50 with B 16 F 10, in the assay with HT 29 and in the assay on SW 480 were 1 µM, 100 µM and 35 µM, respectively.

Take `COC1C(O)C(C)OC(Oc2ccc(NC(=S)NC(CN)C(=O)NC3C=CCC4CN(c5c(F)cc6c(=O)c(C(=O)O)cn(C7CC7)c6c5Cl)CC43)cc2)C1O` [Example 12.15, N-{N^α -[O-(3-O-Methyl-β-L-fucosyl)-4-hydroxy-phenylamino-thiocarbonyl]-diamino-propionoyl)-quinolone-a, hydrochloride]: the IC50 in the assay on B 16 F 10 was 0.1 µM; with HT 29, 1 µM; in the assay on SW 480, 0.3 µM.

As for `COC1C(O)C(C)OC(Oc2ccc(NC(=S)NC(C)C(=O)NC(Cc3ccc(N(CCCl)CCCl)cc3)C(=O)O)cc2)C1O` (stereo not drawn) [Example 16.1], the IC50 was found to be 200 µM in the assay with B 16 F 10, 100 µM with HT 29 and 50 µM in the assay on SW 480.

As to `COC1C(O)C(C)OC(Oc2ccc(NC(=S)NC(C)C(=O)NC(C)C(=O)NC(Cc3ccc(N(CCCl)CCCl)cc3)C(=O)O)cc2)C1O` [Example 16.2, N-{N'-[O-(3-O-Methyl-β-L-fucopyranosyl)-4-hydroxy-phenylamino-thiocarbonyl]-alanyl-alanyl}-melphalan], the IC50 was found to be 80 µM in the assay with B 16 F 10, 60 µM in the assay on HT 29 and 50 µM with SW 480.

`COc1cccc2c1C(=O)c1c(O)c3c(c(O)c1C2=O)CC(O)(C(=O)CO)CC3OC1CC(NC(=O)C(C)NC(=O)C(C)NC(=S)Nc2ccc(OC3OC(C)C(O)C(OC)C3O)cc2)C(O)C(C)O1` [Example 17.1, N-{N'-[O-(3--Methyl-β-L-fucopyranosyl)-4-hydroxy-phenylamino-thiocarbonyl]-alanyl-alanyl}-doxorubicin]: the IC50 in the assay on B 16 F 10 came out at 5 µM; in the assay with HT 29, 5 µM; in the assay on SW 480 it was 10 µM.

For `COc1cccc2c1C(=O)c1c(O)c3c(c(O)c1C2=O)CC(O)(C(=O)CO)CC3OC1CC(NC(=O)C(C)NC(=O)C(CCCCNC(=S)Nc2ccc(OC3OC(C)C(O)C(OC)C3O)cc2)NC(=S)Nc2ccc(OC3OC(C)C(O)C(OC)C3O)cc2)C(O)C(C)O1` [Example 17.2, N-{N^α,N^ε -Bis-[O-(3-O-methyl-β-L-fuccopyranosyl)-4-hydroxy-phenylamino-thiocarbonyl]-D-lysyl-alanyl}-doxorubicin], the IC50 in the assay with B 16 F 10, with HT 29 and with SW 480 was 4 µM in each case.
